Laboratory results: patent US10952940B2, “Reagents and methods for mineralization of tooth enamel” (UNIVERSITY OF WASHINGTON, priority 2016, dated 2021)

Tests used:
Parameters in all cases: species or system human
[1] = Vicker's microhardness of mineralized tooth surface; settings: 10 kg applied load, on the surface, n ≥ 20
Experimental: In addition to nanoindenation measurements, microhardness was also performed on the surface to quantitatively assess the mechanical properties of the mineral layers with larger areas and volumes including the underlying enamel as a composite. Vicker's microhardness was performed on at room temperature using Vicker's indenter on a Wilson Hardness Tukon 1202 microhardness tester at 10 kg applied load (Illinois Tool Works, Lake Bluff, Ill.). At least 20 measurements per group were recorded for obtaining an average and statistical analysis.
Microhardness and nanoindentation differ in both loading range and measurement method as shown in the schematic in FIG. 14 and, for these reasons, both were used in the present work to assess the mechanical durability of the remineralized layers on artificially formed lesions on intact human teeth. In the case of microhardness (Vickers indenter), the measurement was a static one in that the load was applied, released and hardness was obtained by measuring the post-indentation projected area of the indented region (foot print). This method therefore provides information about only the plastically deformed response (plastic deformation) of the material. Furthermore the load applied in this study was 10 kg, lowest allowable by the instrument.

[2] = Nanoindentation of mineralized layers in cross-section
Excerpt: Similar to SEM specimen preparation, tooth samples were notched from the back of tooth before remineralization, then fractured along the notch. The specimens were then mounted in a room temperature-cure epoxy, and the cross-section of the fracture was polished to 0.1 μm finish using diamond lapping films (Allied High Tech Products Inc., Rancho Dominguez, Calif., USA). Nanoindentation measurements were made using a Triboindentor nanoindentation system (Hysitron Inc., Minneapolis, Minn., USA) in air. Hardness (H) and elastic modulus (Er) were determined by the software accompanying the nanoindentation unit.^40-42 In order to obtain the values that were not indentation volume dependent, maximum indentation depth for all measurements kept at 120±10 nm. All reported H and Er values were averaged over 20 measurements.
Nanoindentation, on the other hand, can handle a much smaller applied load, e.g., in the range of 700 to 800 μN; this range of loads to maintain a nominal total indentation depth of approximately 100 nm (<1 μm in indentation width) reasonable depth for both the WSL and mineralized layer regions. The method provides a dynamic measurement with the indentation system tracking continuously load vs. depth during the indentation process providing a Force-to-depth (F-d) profile of the mechanical response of the sample, including biological hard tissues such as enamel, dentin, and bone. The hardness and elastic modulus were extracted from the linear extrapolation of the unloading curve (see FIG. 14b). Hardness obtained by this method contains partial elastic deformation as well as plastic deformation. With small indentation depth and footprint, indentation characterization of the mineral layer only was possible in cross-section for the group 6 samples where mineral layers were more than 5 μm thick. All other treatment groups, reliable nanoindentation characterization of the layers […] because of the thin, and in some cases, discontinuous natural of the layers. It should also be noted that the nanomechanical properties of the artificially created lesion were also determined, with values similar to those of the mineralized layers. Regardless, the complete nanoindentation values are tabulated in Table 10 where each value represents more than 20 measurements per sample.

[3] = Remineralization of artificial white spot lesions, SEM and EDXS analyses of new mineral layer; settings: for thickness of newly formed mineral layer: SEM of cross-sectioned samples, 1 hour treatment
Excerpt: Extracted teeth with no visible white spot lesions, caries, or any other kind of restorations were collected from dental clinics around the King County area (WA, USA) and disinfected in 10% aqueous bleach solutions. Prior to the experiments, the teeth were cleaned to remove visible blood, gross debris and soft connective tissue using a dental scaler under a light microscope.
Enamel was demineralized to create artificial lesions to mimic white spot lesions and/or incipient caries. The teeth were covered by lacquer leaving a 4-mm wide square window in the enamel close to cemento-enamel junction. The exposed areas of 4×4 mm enamel were treated with a cocktail of acetic acid/CaCl2/KH2PO4 for 2 weeks to establish up to 200 μm deep artificially created non-cavitated white spot lesions (WSL). Samples were then divided into control and test groups. Test groups were treated either with peptide, fluoride, or combination of both (Table 5).
Prior to remineralization, samples requiring peptide treatments (Groups 5 & 6) were incubated in 50 μL of 0.8 mM peptide dissolved in 50 mM Tris Buffer Solution (TBS) (pH:7.4) for 10 minutes at 37° C. Next, treatment samples were exposed to 50 mM TBS containing Ca^2+/PO4^3− (Groups 2, 5) or Ca^2+/PO4^3−/F^− (Groups 3, 4, 6) at concentrations as listed in Table 5 for 1 hour at 37° C., then rinsed with de-ionized (DI) water, dried by forced air and stored at room temperature until characterization.
After re-mineralization experiments were completed, secondary electron imaging (SEI) in the scanning electron microscope (SEM) was used to characterize the surface morphology and to show the thickness of newly formed mineral layer in cross-sections where applicable. Specimen preparation for SEM involved cutting a notch on the back side using a low speed saw (IsoMet™, Buehler, Lake Bluff, Ill., USA) before they were subjected to WSL formation and remineralization as described above. After remineralization step was completed, specimens were rinsed with DI water, air dried gently (<5 PSI), then carefully fractured into 2 pieces along the notch. One of the fractured pieces was mounted on a SEM stub with the mineralizing surface facing up for imaging the surface morphology and second piece was mounted with the cross-section facing up to show the thickness of mineral layer. Mounted specimens were then stored in vacuum for at least 2 hours to remove residual moisture which were then sputter coated with 5-nm thick platinum (SPI-Sputter Module Coater, SPI Supplies, West Chester, Pa., USA). SEM characterization was performed using an FEI Sirion microscope (Sirion, FEI, Hillboro, Oreg., USA) operating at 10 kV acceleration voltage. The chemical composition was measured by an onboard energy dispersive X-ray spectroscopy (EDXS) system (X-Max^N Si drift detector with AZtecEnergy software package, Oxford Instruments, Abingdon, Oxfordshire, UK). The measurements for each group were pooled from 5 specimens per group. The average values and standard deviations were calculated and expressed as the mean±standard error.

[4] = mineralized layer, n ≥ 20, listed as Group 6 (shADP5)
[5] = mineralized layer, n ≥ 20, listed as group 6
[6] = underlying enamel of Group 6 samples
[7] = EDXS, 1 hour treatment at 37° C.

## SYENSHSQAINVDRT [shADP5, 15-amino acid long amelogenin-derived peptide, shortened human ADP5]
[1]; listed as Group 6 (shADP5)
  Hardness (Vicker's microhardness): 140.6 +/− 11.3 HV10, MPa
[1]; listed as group 6
  Hardness (Vicker's microhardness): 140.6+11.3 HV10, MPa
[2]; [4]
  Elastic Modulus (nanoindentation): 58.6 ± 4.7 GPa
  Hardness (nanoindentation): 2.23 ± 0.23 GPa
[2]; [5]
  Elastic Modulus (nanoindentation): 58.6±4.7 GPa
  Hardness (nanoindentation): 2.23±0.23 GPa
[2]; [6]
  Elastic Modulus (nanoindentation): 55.0 ± 4.6 GPa
  Hardness (nanoindentation): 2.12 ± 0.21 GPa
[3]; EDXS
  delivery of fluoride into the mineral layer: allows the delivery and incorporation of fluoride ions into the remineralized layer even at low F concentrations
[3]; [7]
  Possible Mineral Formed: Only HAP
  Remineralized Layer Ca/O: 0.56 ± 0.13
[3]; EDXS, 1 hour treatment at 37° C., listed as 6. Peptide only
  Remineralized Layer Ca/P: 1.56 ± 0.12
[3]; EDXS, 1 hour treatment at 37° C., listed as Group 6
  Remineralized Layer Ca/P: 1.54±0.12
[3]; EDXS, 1 hour treatment at 37° C., listed as Group-6
  Remineralized Layer Ca/P: 1.56
[3]; listed as Group 6
  thickness of newly formed mineral layer: 10 μm
[3]; listed as Group-6
  thickness of newly formed mineral layer: > 10 μm
[3]; listed as Peptide alone
  thickness of newly formed mineral layer: 10 μm
